Data on 26 compounds can be found in US20140155376A1, “PYRROLOPYRAZINE KINASE INHIBITORS” (Hoffmann-La Roche Inc., priority 2010, published 2014).

Structures are written as SMILES.

This assay deals with T1, JAK3 (recombinant human kinase domain; h-jak3(810-1124)) (Homo sapiens, UniProt P52333).
T1 construct: h-jak3(810- 1124)-sf9-c; made in house; host or cells: Sf9 insect cells
Description: Determination of IC50 of Janus Kinase (JAK) inhibition: JAK3, radioactive end-point assay with 33P-ATP. In kind it is biochemical. The settings on record: JAK3 kinase domain; ATP 1.5 uM, peptide 50 uM, 20 minutes, room temperature, 10% DMSO; read-out: Ic50 h-jak3(810-1124)-sf9-c:no additive.
Description: Determination of IC50 of Janus Kinase (JAK) Inhibition:
Enzymes and peptide substrate used are described below: • JAK1: Recombinant human kinase domain from Invitrogen (Cat # PV4774) • JAK3: Recombinant human kinase domain from Millipore (Cat #14-629) or prepared. • JAK2: Recombinant human kinase domain from Millipore (Cat #14-640) • Substrate: N-terminally biotinylated 14-mer peptide derived from activation loop of JAK1 with sequence of the peptide substrate: Biotin-[sequence]
Assay Conditions Used are Described Below: • Assay Buffer: JAK Kinase Buffer: 50 mM Hepes [pH 7.2], 10 mM MgCl2, 1 mM DTT, • 1 mg/ml BSA. The assay is carried out in this buffer. • Assay Format The kinase activity of all three JAK kinases is measured using a radioactive, end-point assay and with trace amounts of ^33P-ATP. The assays are carried out in 96-well polypropylene plates.
All concentrations are final in the reaction mixture and all incubations are carried at room temperature. […] Final concentration of DMSO in the reaction is 10%. • 2) Compounds are preincubated with enzyme (0.5 nM JAK3 (commercially available), 0.2 nM JAK3 (prepared), 1 nM JAK2, 5 nM JAK1) for 10 minutes. • 3) Reactions are initiated by the addition of a cocktail of the two substrates (ATP and peptide premixed in the JAK Kinase Buffer). In the JAK2/JAK3 assays, ATP and the peptide are used at concentrations of 1.5 uM and 50 uM, respectively. JAK1 assay is carried out at an ATP concentration of 10 uM and a peptide concentration of 50 uM. • 4) The duration of the assay for JAK2 and JAK3 is 20 minutes. JAK1 assay is carried out for 40 minutes. With all three enzymes, reactions are terminated by the addition of 0.5M EDTA to a final concentration of 100 mM. • 5) 25 ul of terminated reactions are transferred to 150 ul of a 7.5% (v/v) slurry of streptavidin-coated sepharose beads in MgCl2- and CaCl2-free 1× Phosphate Buffered Saline containing 50 mM of EDTA in 96-well, 1.2 um MultiScreen-BV filter plates. • 6) After a 30-minute incubation, the beads are washed under vacuum with the following buffers: • a. 3 to 4 washes with 200 ul of 2M NaCl. • b. 3 to 4 washes with 200 ul of 2M NaCl plus 1% (v/v) phosphoric acid. • c. 1 wash with water. • 7) Washed plates are dried in a 60° C. oven for between 1 to 2 hours. • 8) 70 ul of Microscint 20 scintillation fluid is added to each well of filter plates and after at least 30 minutes of incubation, radioactive counts are measured in a Perkin-Elmer microplate scintillation counter.

T1 sequence (P52333 810-1124): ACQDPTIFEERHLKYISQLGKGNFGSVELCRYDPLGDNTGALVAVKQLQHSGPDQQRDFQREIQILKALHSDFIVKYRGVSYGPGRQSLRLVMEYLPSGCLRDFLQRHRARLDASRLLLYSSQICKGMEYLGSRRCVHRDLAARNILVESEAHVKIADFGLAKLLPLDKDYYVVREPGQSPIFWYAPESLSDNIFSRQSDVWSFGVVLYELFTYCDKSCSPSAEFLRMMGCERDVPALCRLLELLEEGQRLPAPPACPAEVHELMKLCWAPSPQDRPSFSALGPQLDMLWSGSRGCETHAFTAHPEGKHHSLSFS

On to `CCNC(=O)c1c[nH]c2ncc(Oc3cccc(OC)c3)nc12` [Example I-264, 2-(3-Methoxy-phenoxy)-5H-pyrrolo[2,3-b]pyrazine-7-carboxylic acid ethylamide], for which the IC50 is 810 nM.

Regarding `CCNC(=O)c1c[nH]c2ncc(Oc3ccccc3Cl)nc12` [Example I-265, 2-(2-Chloro-phenoxy)-5H-pyrrolo[2,3-b]pyrazine-7-carboxylic acid ethylamide], the half-inhibitory concentration (IC50) is 1100 nM.

Take `CCNC(=O)c1c[nH]c2ncc(Oc3ccc(C#N)cc3)nc12` [Example I-267, 2-(4-Cyano-phenoxy)-5H-pyrrolo[2,3-b]pyrazine-7-carboxylic acid ethylamide]: the half-maximal inhibitory concentration (IC50) was 2360 nM.

On to `CC(C)NC(=O)c1c[nH]c2ncc(Oc3ccc4c(c3)[C@H](NS(C)(=O)=O)CC4)nc12` [Example I-268, 2-((R)-3-Methanesulfonylamino-indan-5-yloxy)-5H-pyrrolo[2,3-b]pyrazine-7-carboxylic acid isopropylamide], for which the IC50 was found to be 155 nM.

Regarding `CCNC(=O)c1c[nH]c2ncc(Oc3ccc4c(c3)[C@H](NS(C)(=O)=O)CC4)nc12` [Example I-270, 2-((R)-3-Methanesulfonylamino-indan-5-yloxy)-5H-pyrrolo[2,3-b]pyrazine-7-carboxylic acid ethylamide], the IC50 was 740 nM.

Turning to `CCNC(=O)c1c[nH]c2ncc(Oc3ccc4c(c3)[C@H](NC(C)=O)CC4)nc12` [Example I-271, 2-((R)-3-Acetylamino-indan-5-yloxy)-5H-pyrrolo[2,3-b]pyrazine-7-carboxylic acid ethylamide], the IC50 was determined as 1270 nM.

As for `CC(C)NC(=O)c1c[nH]c2ncc(Oc3ccc4cc[nH]c4c3)nc12` [Example I-272, 2-(1H-Indol-6-yloxy)-5H-pyrrolo[2,3-b]pyrazine-7-carboxylic acid isopropylamide], the IC50 amounted to 29.3 nM.

For the compound `CCNC(=O)c1c[nH]c2ncc(Oc3ccc4cc[nH]c4c3)nc12` [Example I-273, 2-(1H-Indol-6-yloxy)-5H-pyrrolo[2,3-b]pyrazine-7-carboxylic acid ethylamide], the IC50 turned out to be 470 nM.

Regarding `CC(C)NC(=O)c1c[nH]c2ncc(Oc3cccc4[nH]ccc34)nc12` [Example I-274, 2-(1H-Indol-4-yloxy)-5H-pyrrolo[2,3-b]pyrazine-7-carboxylic acid isopropylamide], the IC50 was 353 nM.

For `CCNC(=O)c1c[nH]c2ncc(Oc3cccc4[nH]ccc34)nc12` [Example I-275, 2-(1H-Indol-4-yloxy)-5H-pyrrolo[2,3-b]pyrazine-7-carboxylic acid ethylamide], the IC50 is 626 nM.

For the compound `CC(C)NC(=O)c1c[nH]c2ncc(Oc3ccc4ccn(C)c4c3)nc12` [Example I-276, 2-(1-Methyl-1H-indol-6-yloxy)-5H-pyrrolo[2,3-b]pyrazine-7-carboxylic acid isopropylamide], the IC50 came to 574 nM.

Turning to `CC(C)NC(=O)c1c[nH]c2ncc(Oc3ccc4[nH]ccc4c3)nc12` [Example I-277, 2-(1H-Indol-5-yloxy)-5H-pyrrolo[2,3-b]pyrazine-7-carboxylic acid isopropylamide], the IC50 came to 229 nM.

Turning to `Cc1cccc(Oc2cnc3[nH]cc(C(=O)NC(C)C)c3n2)n1` [Example I-278, 2-(6-Methyl-pyridin-2-yloxy)-5H-pyrrolo[2,3-b]pyrazine-7-carboxylic acid isopropylamide], the half-maximal inhibitory concentration (IC50) worked out at 491 nM.

Consider `Cc1cc(C)nc(Oc2cnc3[nH]cc(C(=O)NC(C)C)c3n2)c1` [Example I-279, 2-(4,6-Dimethyl-pyridin-2-yloxy)-5H-pyrrolo[2,3-b]pyrazine-7-carboxylic acid isopropylamide], for which the IC50 worked out at 1110 nM.

Take `Cc1ncccc1Oc1cnc2[nH]cc(C(=O)NC(C)C)c2n1` [Example I-280, 2-(2-Methyl-pyridin-3-yloxy)-5H-pyrrolo[2,3-b]pyrazine-7-carboxylic acid isopropylamide]: the IC50 was found to be 3980 nM.

Turning to `CC(C)NC(=O)c1c[nH]c2ncc(Oc3ccc4c(c3)[C@H](N)CC4)nc12` [Example I-281, 2-((R)-3-Amino-indan-5-yloxy)-5H-pyrrolo[2,3-b]pyrazine-7-carboxylic acid isopropylamide], the IC50 was 138 nM.

Turning to `CCC(=O)N[C@@H]1CCc2ccc(Oc3cnc4[nH]cc(C(=O)NC(C)C)c4n3)cc21` [Example I-282, 2-((R)-3-Propionylamino-indan-5-yloxy)-5H-pyrrolo[2,3-b]pyrazine-7-carboxylic acid isopropylamide], the IC50 came to 125 nM.

As for `CC(C)NC(=O)c1c[nH]c2ncc(Oc3ccc4c(c3)[C@H](NC(=O)C3CCOCC3)CC4)nc12` [Example I-283, 2-{(R)-3-[(Tetrahydro-pyran-4-carbonyl)-amino]-indan-5-yloxy}-5H-pyrrolo[2,3-b]pyrazine-7-carboxylic acid isopropylamide], the IC50 came to 56.7 nM.

Turning to `CC(C)NC(=O)c1c[nH]c2ncc(Oc3ccc4c(c3)[C@H](NC(=O)C3CC3)CC4)nc12` [Example I-284, 2-[(R)-3-(Cyclopropane-carbonyl-amino)-indan-5-yloxy]-5H-pyrrolo[2,3-b]pyrazine-7-carboxylic acid isopropylamide], the IC50 amounted to 50 nM.

Turning to `CC(C)NC(=O)c1c[nH]c2ncc(Oc3ccc4c(c3)[C@H](NC(=O)C(C)(C)C)CC4)nc12` [Example I-285, 2-[(R)-3-(2,2-Dimethyl-propionylamino)-indan-5-yloxy]-5H-pyrrolo[2,3-b]pyrazine-7-carboxylic acid isopropylamide], the IC50 worked out at 234 nM.

On to `CC(C)NC(=O)c1c[nH]c2ncc(Oc3ccc4c(c3)[C@H](NC(=O)c3ccccc3)CC4)nc12` [Example I-286, 2-((R)-3-Benzoylamino-indan-5-yloxy)-5H-pyrrolo[2,3-b]pyrazine-7-carboxylic acid isopropylamide], for which the IC50 amounted to 152 nM.

For `CC(=O)N[C@@H]1CCc2ccc(Oc3cnc4[nH]cc(C(=O)N[C@@H](C)C(C)(C)C)c4n3)cc21` [Example I-287, 2-((R)-3-Acetylamino-indan-5-yloxy)-5H-pyrrolo[2,3-b]pyrazine-7-carboxylic acid ((S)-1,2,2-trimethyl-propyl)-amide], the IC50 was 20.2 nM.

With `CC(C)NC(=O)c1c[nH]c2ncc(Oc3ccc4c(c3)[C@@H](N)CC4)nc12` [Example I-289, 2-((S)-3-Amino-indan-5-yloxy)-5H-pyrrolo[2,3-b]pyrazine-7-carboxylic acid isopropylamide], the IC50 was 533 nM.

Consider `CC(=O)N[C@@H]1CCc2cc(Oc3cnc4[nH]cc(C(=O)N[C@@H](C)C(C)(C)C)c4n3)ccc21` [Example I-291, 2-((R)-1-Acetylamino-indan-5-yloxy)-5H-pyrrolo[2,3-b]pyrazine-7-carboxylic acid ((S)-1,2,2-trimethyl-propyl)-amide], for which the IC50 turned out to be 37 nM.

As for `CNC(=O)N[C@@H]1CCc2ccc(Oc3cnc4[nH]cc(C(=O)NC(C)C)c4n3)cc21` [Example I-292, 2-[(R)-3-(3-Methyl-ureido)-indan-5-yloxy]-5H-pyrrolo[2,3-b]pyrazine-7-carboxylic acid isopropylamide], the IC50 was 91.7 nM.

Turning to `CC(C)NC(=O)c1c[nH]c2ncc(Oc3ccc4c(c3)C(O)CC4)nc12` (centres unmarked) [Example I-293, 2-(3-Hydroxy-indan-5-yloxy)-5H-pyrrolo[2,3-b]pyrazine-7-carboxylic acid isopropylamide], the IC50 is 162 nM.

Usually IC50 stands for the midpoint of a concentration-inhibition curve.
